This assay concerns the target T1, histamine 3 receptor (H3R) (Homo sapiens, UniProt Q9Y5N1).
T1 construct: expressed in transfected cells; host or cells: CHO cells (HR3-CHO cell line), membrane preparation
Nature of the assay: Binding assay with 3H-(R)α-methylhistamine (competition binding, membranes of the human HR3-CHO cell line). To be noted: membrane of human HR3-CHO cell line; 3H(R)α-Methylhistamine 1 nM; Ki calculated from IC50 by Cheng-Prusoff equation. The protocol: Binding Assay with ^3H—(R)α-methylhistamine
Saturation binding experiments were performed using HR3-CHO membranes prepared as described in Takahashi, K, Tokita, S., Kotani, H. (2003) J. Pharmacol. Exp. Therapeutics 307, 213-218.
An appropriate amount of membrane (60 to 80 μg protein/well) was incubated with increasing concentrations of ^3H(R)α-Methylhistamine di-hydrochloride (0.10 to 10 nM). Non specific binding was determined using a 200 fold excess of cold (R)α-Methylhistamine dihydrobromide (500 nM final concentration). The incubation was carried out at room temperature (in deep-well plates shaking for three hours). The final volume in each well was 250 μl. The incubation was followed by rapid filtration on GF/B filters (pre-soaked with 100 μl of 0.5% PEI in Tris 50 mM shaking at 200 rpm for two hours). […] After harvesting, the plates were dried at 55° C. for 60 min, then we added scintillation fluid (Microscint 40, 40 microl in each well) and the amount of radioactivity on the filter was determined in Packard top-counter after shaking the plates for two hours at 200 rpm at room temperature. […]
All compounds were tested at a single concentration in duplicates. […] Ki's were calculated from IC50 based on Cheng-Prusoff equation (Cheng, Y, Prusoff, W H (1973) Biochem Pharmacol 22, 3099-3108).

T1 sequence (Q9Y5N1 whole entry): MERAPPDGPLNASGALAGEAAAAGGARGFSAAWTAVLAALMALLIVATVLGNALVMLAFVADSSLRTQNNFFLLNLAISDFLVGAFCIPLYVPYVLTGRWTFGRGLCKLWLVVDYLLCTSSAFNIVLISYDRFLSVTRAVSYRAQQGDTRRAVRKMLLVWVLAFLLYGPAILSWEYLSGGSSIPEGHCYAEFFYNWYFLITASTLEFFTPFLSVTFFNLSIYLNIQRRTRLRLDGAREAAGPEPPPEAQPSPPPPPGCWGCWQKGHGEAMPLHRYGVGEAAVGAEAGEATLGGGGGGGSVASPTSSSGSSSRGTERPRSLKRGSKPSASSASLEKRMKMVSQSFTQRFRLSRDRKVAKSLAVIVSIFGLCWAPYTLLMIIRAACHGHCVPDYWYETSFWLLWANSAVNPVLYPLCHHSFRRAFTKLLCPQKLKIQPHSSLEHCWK

`CC(C)N1CCC(Oc2ccc3c(c2)cc(C(=O)N2CCS(=O)(=O)CC2)n3CC(F)(F)F)CC1` [Example 1, (1,1-Dioxo-thiomorpholin-4-yl)-[5-(1-isopropyl-piperidin-4-yloxy)-1-(2,2,2-trifluoro-ethyl)-1H-indol-2-yl]-methanone]: the Ki is 0.003 µM.
As to `CC(C)N1CC[C@H](Oc2ccc3[nH]c(C(=O)N4CCS(=O)(=O)CC4)cc3c2)C1` [Example 4, (1,1-Dioxo-thiomorpholin-4-yl)-[5-(1-isopropyl-pyrrolidin-3S-yloxy)-1H-indol-2-yl]-methanone], the Ki is 0.049 µM.

One may read the Ki as the equilibrium dissociation constant of an inhibitor or competing ligand from its target.

The record behind these values is US7538101B2, “1,1-dioxo-thiomorpholinyl indolyl methanone derivatives” (Hoffmann-La Roche Inc., priority 2005, dated 2009).
